Source: patent publication US6093747A, “1,7,7-trimethyl-bicyclo[2.2.1]heptane derivatives as anxiolytic agents having enhanced receptor specificity” (priority 1996, dated 2000)

Assays:
[1] = Inhibition of spontaneous motor activity; type: in vivo, mice; settings: for ED50: Mus musculus, 1 h, treated 60 minutes prior to the test, ID50 by linear regression analysis
Method: Inhibition of Spontaneous Motor Activity
Spontaneous motor activity was measured as described earlier [Borsy et al., Arch. Int. Pharmacodyn. 124: 1-, 1960.] in a 10 box apparatus (Dews) 3--3 mice in each compartment. Mice were treated either with test compounds or with vehiculum 60 minutes prior to the test. The number of interruptions of the infrared light beams was counted, ID50 values were calculated by linear regression analysis (Table IV).

D2 = molecular target: T1, D2 (Rattus norvegicus, UniProt P61169); test: Receptor binding assay, D2 (3H-spiperone); design: species or system male Wistar rat; settings: 3H-spiperone 0.5 nM, striatum
T1 construct: from tissue; host or cells: male Wistar rat striatum, membrane fraction
T1 sequence (P61169 whole entry): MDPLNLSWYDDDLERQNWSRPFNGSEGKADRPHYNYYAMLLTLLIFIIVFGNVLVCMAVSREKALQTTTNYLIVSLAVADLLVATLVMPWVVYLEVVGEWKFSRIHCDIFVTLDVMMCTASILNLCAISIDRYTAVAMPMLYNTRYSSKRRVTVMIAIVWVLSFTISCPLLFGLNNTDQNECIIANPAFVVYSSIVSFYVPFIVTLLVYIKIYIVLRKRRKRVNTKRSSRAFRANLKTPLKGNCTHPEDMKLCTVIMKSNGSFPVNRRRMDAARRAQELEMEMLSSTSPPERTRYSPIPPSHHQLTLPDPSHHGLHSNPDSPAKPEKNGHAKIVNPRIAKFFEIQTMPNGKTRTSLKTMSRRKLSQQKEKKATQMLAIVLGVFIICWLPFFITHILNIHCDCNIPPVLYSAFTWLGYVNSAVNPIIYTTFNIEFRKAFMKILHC
Method: (§1) The different brain regions of 120-200 g male Wistar rats were used for receptor binding assays except for 5-HT2c receptors where binding studies were performed on porcine choroid plexus. Protein content of the membrane fraction was determined as described by Lowry [Lowry, O. H., Rosebrough, M. J., Farr, A. L. and Randall, R. Y.: J. Biol. Chem., 193: 265-275, 1951].
D2 ^3 H-spiperone striatum butaclamol Leff, S. et al.,

Sigma = molecular target: T2, Sigma (Rattus norvegicus, UniProt Q9R0C9); test: Receptor binding assay, Sigma (3H-pentazocine); design: species or system male Wistar rat; settings: for Ki: Sigma, 3H-pentazocine 3.0 nM, cerebellum
T2 construct: from tissue; host or cells: male Wistar rat cerebellum, membrane fraction
T2 sequence (Q9R0C9 whole entry): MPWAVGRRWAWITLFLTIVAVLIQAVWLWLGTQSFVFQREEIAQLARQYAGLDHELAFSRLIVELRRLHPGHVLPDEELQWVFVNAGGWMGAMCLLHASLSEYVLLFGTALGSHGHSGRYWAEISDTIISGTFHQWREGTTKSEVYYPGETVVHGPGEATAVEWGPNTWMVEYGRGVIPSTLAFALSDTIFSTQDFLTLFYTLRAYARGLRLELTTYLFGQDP
Method: as §1
Sigma ^3 H-pentazocine cerebellum haloperidol Costa B. R. et
3.0 nM (10 μM) al., Febs Lett.,

5-HT2A = molecular target: T3, 5-HT2A (Rattus norvegicus, UniProt P14842); test: Receptor binding assay, 5-HT2A (3H-ketanserin); design: species or system male Wistar rat; settings: 3H-ketanserin 1.0 nM, frontal cortex
T3 construct: from tissue; host or cells: male Wistar rat frontal cortex, membrane fraction
T3 sequence (P14842 whole entry): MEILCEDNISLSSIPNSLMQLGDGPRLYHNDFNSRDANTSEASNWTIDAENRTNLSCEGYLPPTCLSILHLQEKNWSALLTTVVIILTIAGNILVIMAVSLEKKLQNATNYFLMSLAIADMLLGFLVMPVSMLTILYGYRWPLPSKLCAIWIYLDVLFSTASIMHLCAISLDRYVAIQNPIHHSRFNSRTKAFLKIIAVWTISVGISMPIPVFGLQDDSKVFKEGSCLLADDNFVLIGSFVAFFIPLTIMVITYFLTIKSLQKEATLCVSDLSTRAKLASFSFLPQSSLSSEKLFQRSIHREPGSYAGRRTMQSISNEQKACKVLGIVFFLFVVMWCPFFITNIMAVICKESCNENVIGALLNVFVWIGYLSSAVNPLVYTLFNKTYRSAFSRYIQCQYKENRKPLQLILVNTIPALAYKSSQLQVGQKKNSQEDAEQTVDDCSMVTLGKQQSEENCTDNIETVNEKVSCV
Method: as §1
5-HT2A ^3 H-ketanserin frontal cyprohepta- Leysen, J. E.
1.0 nM cortex dine et al.: Mol.

animal or person = type: in vivo, male NMRI mice; settings: for ED50: Mus musculus, po, 1 h, read-out: ED50, potentiation of hexobarbital induced narcosis
Method: Potentiation of Hexobarbital Induced Narcosis
Male NMRI mice weighing 20-25 g were treated p.o. with the test compound or with vehiculum in 20 ml/kg volume 60 minutes prior to the iv. injection of 40 mg/kg (10 ml/kg) hexobarbital. The sleeping animals were placed on a flat surface lying on their left side and the accurate sleeping and awakening times were recorded. The animals were considered to be awaken when they rolled up from their side.
Sleeping times 2.5 times higher than the average of the control group were considered as criterion for potentiation (cut up method), results were expressed as percent increase compared to control values, ED50 values were calculated from the dose response curves according to Litchfield-Wilcoxon.

Elevated plus-maze test = type: in vivo, male Sprague-Dawley rats; settings: for minimal effective dose: Rattus norvegicus, 1 h, treated 60 minutes prior to the test, based on times spent in the open arms, read-out: MED (minimal effective dose), elevated plus maze; for effect in the elevated plus maze test (in words): rat, in vivo
Method: The elevated plus-maze consisted of two open and two 40 cm wall enclosed arms of the same size (50×15 cm) arranged in the shape of a cross. The arms of the same type were opposite to each other. The junction of the four arms forms a central square area (15×15 cm). The apparatus is made of wooden material elevated to a height of 50 cm from the floor and illuminated by a dim light from above.
Male Sprague-Dawley rats weighing 220-260 g were treated with the test or reference compounds 60 minutes prior to the test. They were then placed onto the central square area and were subjected to the test for 5 minutes. The following parameters were determined:
Time spent in the open arms;
Time spent in the closed arms;
Number of entries into the open arms;
Number of entries into the closed arms.
A compound was considered to be effective when significant increase was found either in the time spent in the open arms or in the number of entries into the open arms when compared to the control animals. Minimum Effective Doses (MED) were determined based on the times spent in the open arms for each compound examined (Table II) [Pelow et al., J. Neurosci. Methods, 14: 149-169, 1985].

[2] = Inhibition of mCPP induced anxiety (light-dark apparatus); type: in vivo, male Wistar rats; settings: for minimal effective dose: Rattus norvegicus, ip, treated twenty minutes before mCPP s.c., read-out: MED (minimal effective dose), inhibition of mCPP induced anxiety; for effect on mCPP induced anxiety (in words): rat model, Compound A up to 3.0 mg/kg i.p.
Method: The tests were carried out on male Wistar rats weighing 160-220 g according to Kennett [Kennett, G. A., Whitton, P., Shah, K. and Curzon, G. Eur. J. Pharmacol., 164: 445-454, 1989.]. The animals were treated either with the test compound or with vehiculum (0.4% methyl cellulose solution). Twenty minutes later either mCPP (m-chlorophenyl-piperazin) or physiological saline was administered subcutaneously. The animals were kept in the dark for additional 20 minutes, then they were placed into the light-dark apparatus (Omnitech, Digiscan, Model RXYZCM16) and their motor activity was recorded for five minutes. The testbox consisted of one dark and one lit compartment of the same size (39×20×29 cm) with an 8×8 gate providing free passage for the animals between the two compartments. The lit area was illuminated by a 40 W red light bulb 30 cm above the floor. Motor activity was recorded as the number of interruptions of the infrared light beams (16 beams 2 cm and 16 beams 8 cm above the floor). The number of crossing in the lit compartment was considered as the measure of antagonistic effect on mCPP induced anxiety. Data were statistically analyzed by one way ANOVA followed by Dunnet's t-test.

D1 = molecular target: T4, D1 (Rattus norvegicus, UniProt P18901); test: Receptor binding assay, D1 (3H-SCH 23390); design: species or system male Wistar rat; settings: 3H-SCH 23390 0.78 Nm, striatum
T4 construct: from tissue; host or cells: male Wistar rat striatum, membrane fraction
T4 sequence (P18901 whole entry): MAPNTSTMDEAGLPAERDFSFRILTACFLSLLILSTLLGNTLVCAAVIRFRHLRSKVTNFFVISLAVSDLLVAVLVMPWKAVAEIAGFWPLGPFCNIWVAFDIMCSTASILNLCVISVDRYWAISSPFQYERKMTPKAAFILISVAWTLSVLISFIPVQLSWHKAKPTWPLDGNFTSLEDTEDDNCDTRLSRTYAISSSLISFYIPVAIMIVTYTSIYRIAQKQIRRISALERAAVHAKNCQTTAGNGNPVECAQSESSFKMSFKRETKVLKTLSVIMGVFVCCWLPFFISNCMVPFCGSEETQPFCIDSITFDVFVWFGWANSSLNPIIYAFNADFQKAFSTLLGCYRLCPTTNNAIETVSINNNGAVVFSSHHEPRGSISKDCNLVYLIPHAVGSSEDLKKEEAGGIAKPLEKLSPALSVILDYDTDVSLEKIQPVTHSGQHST
Method: as §1
D1 ^3 H-SCH 23390 striatum cis- Hietala J. et
0.78 Nm flupentixol al., Neurosci.

5-HT1A = molecular target: T5, 5-HT1A (Rattus norvegicus, UniProt P19327); test: Receptor binding assay, 5-HT1A (3H-8-OH-DPAT); design: species or system male Wistar rat; settings: 3H-8-OH-DPAT 0.7 nM, frontal cortex
T5 construct: from tissue; host or cells: male Wistar rat frontal cortex, membrane fraction
T5 sequence (P19327 1-422): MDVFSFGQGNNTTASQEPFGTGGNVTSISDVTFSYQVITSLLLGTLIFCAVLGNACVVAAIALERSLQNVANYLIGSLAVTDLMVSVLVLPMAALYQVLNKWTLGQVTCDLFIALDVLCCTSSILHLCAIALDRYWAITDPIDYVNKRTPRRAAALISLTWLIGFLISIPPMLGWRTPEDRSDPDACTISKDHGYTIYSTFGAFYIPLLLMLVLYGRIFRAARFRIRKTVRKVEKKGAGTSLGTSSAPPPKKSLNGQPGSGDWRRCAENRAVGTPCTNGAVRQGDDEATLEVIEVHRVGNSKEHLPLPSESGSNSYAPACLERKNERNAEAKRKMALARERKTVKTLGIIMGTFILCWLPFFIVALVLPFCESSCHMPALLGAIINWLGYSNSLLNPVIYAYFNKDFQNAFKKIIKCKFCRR
Method: as §1
frontal 5-HT Peroutka, S.
0.7 nM cortex (10 μM) J. J.

5-HT2C [3] = test: biochemical; type: binding, porcine; settings: among 5-HT receptors
Method: as §1
(§2) 5-HT2C ^3 H-mesulergin choroid mianserin Pazos, A. et
(§3) 1.0 nM plexus (1 μM) al. Eur. J.

5-HT2C [4] = molecular target: T6, 5-HT2C (Sus scrofa, UniProt K7GSR7); test: biochemical; type: binding, porcine
T6 construct: from tissue; host or cells: porcine choroid plexus
T6 sequence (K7GSR7 1-457): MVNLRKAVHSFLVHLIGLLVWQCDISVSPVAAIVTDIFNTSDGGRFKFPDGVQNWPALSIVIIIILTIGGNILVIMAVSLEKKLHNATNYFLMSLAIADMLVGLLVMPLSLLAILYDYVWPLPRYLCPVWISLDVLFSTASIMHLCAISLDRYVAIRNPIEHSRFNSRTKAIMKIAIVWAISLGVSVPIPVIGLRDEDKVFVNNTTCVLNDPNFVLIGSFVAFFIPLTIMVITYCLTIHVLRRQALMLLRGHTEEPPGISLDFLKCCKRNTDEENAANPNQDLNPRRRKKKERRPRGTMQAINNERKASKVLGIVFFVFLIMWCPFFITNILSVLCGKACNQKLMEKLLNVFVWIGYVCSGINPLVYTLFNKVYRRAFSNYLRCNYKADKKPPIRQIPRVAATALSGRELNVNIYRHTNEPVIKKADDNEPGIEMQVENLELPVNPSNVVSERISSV
Method: as §1, §2, §3

| Structure (SMILES) | ED50 [1] [mg/kg] | inhibition of spontaneous motor activity (in words) ([1]; sedato-hypnotic side effect, compared to Compound B) | Ki (D2) [nM] | binding at sigma receptors (in words) (Sigma) | Ki (Sigma) [nM] | Ki (5-HT2A) [nM] | ED50 (animal or person) [mg/kg] | potentiation of hexobarbital induced narcosis (in words) (animal or person; mouse, in vivo) | minimal effective dose (Elevated plus-maze test) [mg/kg] | effect in the elevated plus maze test (in words) (Elevated plus-maze test) | minimal effective dose [2] [mg/kg] | effect on mCPP induced anxiety (in words) [2] | Ki (D1) [nM] | Ki (5-HT1A) [nM] | selectivity of binding among 5-HT receptors (in words) (5-HT2C [3]) | Ki (5-HT2C [4]) [nM] |
| --- | --- | --- | --- | --- | --- | --- | --- | --- | --- | --- | --- | --- | --- | --- | --- | --- |
| CNCCO[C@]1(c2ccccc2)C[C@H]2CC[C@]1(C)C2(C)C [Compound A, (1R,2S,4R)-(-)-2-phenyl-2-methylaminoethoxy-1,7,7-trimethyl-bicyclo[2.2.1]heptane-fumarate] | 57 | inhibited the spontaneous motor activity in higher doses only | > 100 | does not | > 100 | > 100 | 4 | potentiated the hexobarbital induced narcosis to a lesser extent | 1 | effective in the elevated plus maze test | > 3 | completely ineffective up to 3.0 mg/kg i.p. | 10000 | > 10000 | binds only to 2C | 20 |
| CN(C)CCO[C@]1(c2ccccc2)C[C@H]2CC[C@]1(C)C2(C)C [Compound B, (1R,2S,4R)-(-)-2-phenyl-2-dimethylaminoethoxy-1,7,7-trimethyl-bicyclo[2.2.1]heptane-fumarate, reference compound] | 31.5 | – | > 100 | shows significant binding at sigma receptors | 52 | 35 | 0.5 | – | > 10 | did not show any effect | 0.5 | significantly antagonized the mCPP induced anxiety | > 1000 | > 10000 | not selective at 2C | 9 |
